# Peptide text beside a SMILES is read from it.
# Test system: Botrytis cinerea (B05.10)
# Test: Resazurin antifungal assay of 180 alpha-factor peptide variants towards Botrytis (Example 2)
# Assay type: cell-based
# Set-up: key to active against Botrytis at 15 μM / active against Botrytis at 10 μM: Peptides that showed greater than 90% inhibition were considered active against Botrytis
# Conditions: for Inhibition at 10 μM / Inhibition at 20 μM / Inhibition at 50 μM / Inhibition at 100 μM / Inhibition at 15 μM: % inhibition of fungal growth, Botrytis conidia, resazurin; for Inhibition at 20 μM: peptide 20 μM; for Inhibition at 50 μM: peptide 50 μM; for Inhibition at 100 μM: peptide 100 μM; for Inhibition at 15 μM / active against Botrytis at 15 μM: peptide 15 μM
# How it was run: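 Resazurin viability read-out (570/620 nm fluorescence) after a 24 h, 20° C incubation of B05.10 conidia, 5000 per well, with peptide at final 10-100 μM. Growth inhibition (%) was derived by subtracting conidia-only fluorescence; four replicates per treatment.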
compound,measurement,setting,value
CSCC[C@H](NC(=O)[C@@H]1CCCN1C(=O)[C@H](CCC(N)=O)NC(=O)CNC(=O)[C@@H](NC(=O)[C@H](CCCNC(=N)N)NC(=O)[C@H](CC(C)C)NC(=O)[C@H](CC(N)=O)NC(=O)[C@@H](NC(=O)[C@H](Cc1c[nH]c2ccccc12)NC(=O)[C@H](CCCCN)NC(=O)[C@@H](N)Cc1c[nH]c2ccccc12)C(C)C)[C@@H](C)O)C(=O)N[C@@H](Cc1ccc(O)cc1)C(=O)O [compound 65] (H-WKWVNLRTGQPMY-OH; N-terminus and C-terminus assumed),Inhibition at 10 μM,peptide 10 μM,<90%
same,Inhibition at 20 μM,,<90%
same,Inhibition at 50 μM,,100%
same,Inhibition at 100 μM,,100%
CC[C@H](C)[C@H](NC(=O)[C@H](Cc1c[nH]c2ccccc12)NC(=O)[C@H](Cc1c[nH]cn1)NC(=O)[C@@H]1CCCN1)C(=O)N[C@@H](CO)C(=O)N[C@@H](CC(C)C)C(=O)N[C@@H](CCCCN)C(=O)N[C@@H](CCCCN)C(=O)NCC(=O)N[C@@H](CCC(N)=O)C(=O)N1CCC[C@H]1C(=O)N[C@@H](CCSC)C(=O)N[C@@H](Cc1ccc(O)cc1)C(=O)O [compound 66] (H-PHWISLKKGQPMY-OH; N-terminus and C-terminus assumed),Inhibition at 10 μM,peptide 10 μM,<90%
same,Inhibition at 15 μM,,<90%
same,Inhibition at 20 μM,,96.17%
same,Inhibition at 50 μM,,100%
same,Inhibition at 100 μM,,100%
CC[C@H](C)[C@H](NC(=O)[C@H](CCCNC(=N)N)NC(=O)[C@H](CC(C)C)NC(=O)[C@H](CCSC)NC(=O)[C@H](Cc1c[nH]cn1)NC(=O)[C@@H](N)CCCCN)C(=O)N[C@@H](CCCCN)C(=O)N1CCC[C@H]1C(=O)NCC(=O)N[C@@H](CCC(N)=O)C(=O)N1CCC[C@H]1C(=O)N[C@@H](CCSC)C(=O)N[C@@H](Cc1ccc(O)cc1)C(=O)O [compound 67] (H-KHMLRIKPGQPMY-OH; N-terminus and C-terminus assumed),Inhibition at 10 μM,peptide 10 μM,<90%
same,Inhibition at 15 μM,,<90%
same,Inhibition at 20 μM,,97.68%
same,Inhibition at 50 μM,,100%
same,Inhibition at 100 μM,,100%
CSCC[C@H](NC(=O)[C@@H]1CCCN1C(=O)[C@H](CCC(N)=O)NC(=O)CNC(=O)[C@H](C)NC(=O)[C@H](CCCNC(=N)N)NC(=O)[C@H](CC(C)C)NC(=O)[C@H](CCCNC(=N)N)NC(=O)CNC(=O)[C@H](Cc1c[nH]c2ccccc12)NC(=O)[C@H](Cc1c[nH]cn1)NC(=O)[C@@H](N)CCCCN)C(=O)N[C@@H](Cc1ccc(O)cc1)C(=O)O [compound 68] (H-KHWGRLRAGQPMY-OH; N-terminus and C-terminus assumed),Inhibition at 10 μM,peptide 10 μM,97.09%
same,Inhibition at 15 μM,,99.23%
same,Inhibition at 20 μM,,100%
same,Inhibition at 50 μM,,100%
same,Inhibition at 100 μM,,100%
same,active against Botrytis at 10 μM,peptide 10 μM,active
same,active against Botrytis at 15 μM,,active
CSCC[C@H](NC(=O)[C@@H]1CCCN1C(=O)[C@H](CCC(N)=O)NC(=O)CNC(=O)[C@@H]1CCCN1C(=O)[C@H](CC(N)=O)NC(=O)[C@H](CC(C)C)NC(=O)[C@H](CCCNC(=N)N)NC(=O)[C@H](CC(C)C)NC(=O)[C@H](Cc1c[nH]c2ccccc12)NC(=O)[C@H](Cc1c[nH]cn1)NC(=O)[C@@H](N)CCCCN)C(=O)N[C@@H](Cc1ccc(O)cc1)C(=O)O [compound 69] (H-KHWLRLNPGQPMY-OH; N-terminus and C-terminus assumed),Inhibition at 10 μM,peptide 10 μM,<90%
same,Inhibition at 15 μM,,<90%
same,Inhibition at 20 μM,,95.74%
same,Inhibition at 50 μM,,100%
same,Inhibition at 100 μM,,100%
CSCC[C@H](NC(=O)[C@H](CO)NC(=O)[C@H](CCC(N)=O)NC(=O)CNC(=O)[C@@H]1CCCN1C(=O)[C@H](CCCCN)NC(=O)[C@H](CC(C)C)NC(=O)[C@H](CCCNC(=N)N)NC(=O)[C@H](CC(C)C)NC(=O)[C@H](Cc1ccc(O)cc1)NC(=O)[C@H](Cc1c[nH]cn1)NC(=O)[C@@H](N)Cc1c[nH]c2ccccc12)C(=O)N[C@@H](Cc1ccc(O)cc1)C(=O)O [compound 70] (H-WHYLRLKPGQSMY-OH; N-terminus and C-terminus assumed),Inhibition at 10 μM,peptide 10 μM,<90%
same,Inhibition at 20 μM,,<90%
same,Inhibition at 50 μM,,100%
same,Inhibition at 100 μM,,100%
CC[C@H](C)[C@H](NC(=O)[C@H](Cc1c[nH]c2ccccc12)NC(=O)[C@H](Cc1c[nH]cn1)NC(=O)[C@@H](N)Cc1c[nH]c2ccccc12)C(=O)N[C@@H](CCC(N)=O)C(=O)N[C@@H](CC(C)C)C(=O)N[C@@H](CCCCN)C(=O)N[C@@H](CCCCN)C(=O)NCC(=O)N[C@@H](CCC(=O)O)C(=O)N1CCC[C@H]1C(=O)N[C@@H](CCSC)C(=O)N[C@@H](Cc1ccc(O)cc1)C(=O)O [compound 71] (H-WHWIQLKKGEPMY-OH; N-terminus and C-terminus assumed),Inhibition at 10 μM,peptide 10 μM,<90%
same,Inhibition at 20 μM,,<90%
same,Inhibition at 50 μM,,100%
same,Inhibition at 100 μM,,100%
CSCC[C@H](NC(=O)[C@@H]1CCCN1C(=O)[C@H](CCC(N)=O)NC(=O)CNC(=O)[C@@H]1CCCN1C(=O)[C@H](CCCCN)NC(=O)[C@H](Cc1ccccc1)NC(=O)[C@H](CCCCN)NC(=O)[C@H](CC(C)C)NC(=O)[C@H](Cc1ccc(O)cc1)NC(=O)[C@H](Cc1c[nH]cn1)NC(=O)[C@@H](N)CCCCN)C(=O)N[C@@H](Cc1ccc(O)cc1)C(=O)O [compound 72] (H-KHYLKFKPGQPMY-OH; N-terminus and C-terminus assumed),Inhibition at 10 μM,peptide 10 μM,<90%
same,Inhibition at 15 μM,,98.60%
same,Inhibition at 20 μM,,100%
same,Inhibition at 50 μM,,100%
same,Inhibition at 100 μM,,100%
same,active against Botrytis at 15 μM,,active
CC[C@H](C)[C@H](NC(=O)[C@H](CCCNC(=N)N)NC(=O)[C@H](CC(C)C)NC(=O)[C@H](Cc1c[nH]c2ccccc12)NC(=O)[C@H](CCC(N)=O)NC(=O)[C@@H](N)Cc1c[nH]c2ccccc12)C(=O)N[C@@H](CCCCN)C(=O)N[C@@H](CO)C(=O)NCC(=O)N[C@@H](CCC(N)=O)C(=O)NCC(=O)N[C@@H](CCSC)C(=O)N[C@@H](Cc1ccc(O)cc1)C(=O)O [compound 73] (H-WQWLRIKSGQGMY-OH; N-terminus and C-terminus assumed),Inhibition at 10 μM,peptide 10 μM,<90%
same,Inhibition at 20 μM,,<90%
same,Inhibition at 50 μM,,100%
same,Inhibition at 100 μM,,100%
CSCC[C@H](NC(=O)[C@@H]1CCCN1C(=O)[C@H](CCC(N)=O)NC(=O)CNC(=O)[C@@H]1CCCN1C(=O)[C@H](Cc1c[nH]cn1)NC(=O)[C@H](CC(C)C)NC(=O)[C@H](CCCCN)NC(=O)[C@@H](NC(=O)[C@H](Cc1ccccc1)NC(=O)[C@H](Cc1c[nH]cn1)NC(=O)[C@@H](N)Cc1c[nH]c2ccccc12)C(C)C)C(=O)N[C@@H](Cc1ccc(O)cc1)C(=O)O [compound 74] (H-WHFVKLHPGQPMY-OH; N-terminus and C-terminus assumed),Inhibition at 10 μM,peptide 10 μM,<90%
same,Inhibition at 20 μM,,<90%
same,Inhibition at 50 μM,,100%
same,Inhibition at 100 μM,,100%
CC[C@H](C)[C@H](NC(=O)[C@H](Cc1c[nH]c2ccccc12)NC(=O)[C@H](Cc1c[nH]cn1)NC(=O)[C@@H](N)CCCCN)C(=O)N[C@@H](CCCNC(=N)N)C(=O)N[C@@H](CC(C)C)C(=O)N[C@@H](Cc1c[nH]c2ccccc12)C(=O)N1CCC[C@H]1C(=O)NCC(=O)N[C@@H](CCC(N)=O)C(=O)N1CCC[C@H]1C(=O)N[C@@H](CCSC)C(=O)N[C@@H](Cc1ccc(O)cc1)C(=O)O [compound 75] (H-KHWIRLWPGQPMY-OH; N-terminus and C-terminus assumed),Inhibition at 10 μM,peptide 10 μM,<90%
same,Inhibition at 15 μM,,<90%
same,Inhibition at 20 μM,,92.02%
same,Inhibition at 50 μM,,100%
same,Inhibition at 100 μM,,100%
CSCC[C@H](NC(=O)[C@H](CO)NC(=O)[C@H](C)NC(=O)CNC(=O)[C@@H]1CCCN1C(=O)[C@H](CCCCN)NC(=O)[C@H](CC(C)C)NC(=O)[C@H](CCCNC(=N)N)NC(=O)[C@H](CC(C)C)NC(=O)[C@H](Cc1c[nH]c2ccccc12)NC(=O)[C@H](Cc1c[nH]cn1)NC(=O)[C@@H](N)Cc1c[nH]c2ccccc12)C(=O)N[C@@H](Cc1ccc(O)cc1)C(=O)O [compound 76] (H-WHWLRLKPGASMY-OH; N-terminus and C-terminus assumed),Inhibition at 10 μM,peptide 10 μM,<90%
same,Inhibition at 15 μM,,<90%
same,Inhibition at 20 μM,,97.59%
same,Inhibition at 50 μM,,100%
same,Inhibition at 100 μM,,100%
CC[C@H](C)[C@H](NC(=O)[C@H](Cc1c[nH]c2ccccc12)NC(=O)[C@H](Cc1c[nH]cn1)NC(=O)[C@@H]1CCCN1)C(=O)N[C@@H](CCCCN)C(=O)N[C@@H](CC(C)C)C(=O)N[C@@H](Cc1c[nH]cn1)C(=O)N[C@H](C(=O)NCC(=O)N[C@@H](CCC(N)=O)C(=O)N1CCC[C@H]1C(=O)N[C@@H](CCSC)C(=O)N[C@@H](Cc1ccc(O)cc1)C(=O)O)[C@@H](C)O [compound 77] (H-PHWIKLHTGQPMY-OH; N-terminus and C-terminus assumed),Inhibition at 10 μM,peptide 10 μM,<90%
same,Inhibition at 20 μM,,<90%
same,Inhibition at 50 μM,,100%
same,Inhibition at 100 μM,,99.74%
CSCC[C@H](NC(=O)[C@@H]1CCCN1C(=O)[C@H](CCC(N)=O)NC(=O)CNC(=O)[C@@H]1CCCN1C(=O)[C@H](CCCCN)NC(=O)[C@H](Cc1ccccc1)NC(=O)[C@H](CC(N)=O)NC(=O)[C@H](CC(C)C)NC(=O)[C@H](Cc1ccccc1)NC(=O)[C@H](Cc1c[nH]cn1)NC(=O)[C@@H](N)CCCCN)C(=O)N[C@@H](Cc1ccc(O)cc1)C(=O)O [compound 78] (H-KHFLNFKPGQPMY-OH; N-terminus and C-terminus assumed),Inhibition at 10 μM,peptide 10 μM,<90%
same,Inhibition at 20 μM,,<90%
same,Inhibition at 50 μM,,100%
same,Inhibition at 100 μM,,100%

# — patent publication US20250382332A1, “NOVEL ALPHA-FACTOR BASED PEPTIDES WITH ANTIFUNGAL ACTIVITY” (INVAIO SCIENCES, INC., priority 2024, published 2025)
